{
  "source": "patent US20250360122A1",
  "about": "“USE OF NAMPT INHIBITORS IN THE MANUFACTURE OF MEDICAMENTS FOR PREVENTING AND/OR TREATING PIGMENTED VILLONODULAR SYNOVITIS” (WEST CHINA HOSPITAL, SICHUAN UNIVERSITY, priority 2024, published 2025)",
  "type_in_all_cases": "in vivo, female NOD-SCID mice",
  "key": {"[1]": {"system": "PVNS grafts", "test": "PVNS-PDX tumor model, tumor growth / final tumor size", "settings": "PVNS-PDX mice, 14 days of FK866 treatment, 30 mg/kg i.p.", "description": "(§1) A PVNS-human-derived tissue xenograft (PDX) tumor model was established using female NOD-SCID gnotobiotic mice aged 5 to 6 weeks. The human-derived tissue was sourced from the tumor tissue of patients with a confirmed diagnosis of PVNS who underwent surgery. During the surgery, viable synovial tissue was collected and then transplanted to construct the PVNS-PDX tumor model. The mice were purchased from Vital River Laboratory Animal Technology Co., Ltd. (Beijing, China) and were housed in micro-isolator cages under specific pathogen-free conditions. Tumor grafts were prepared using sterile SmartFlow (Airtech, China). After removing the necrotic tissue, the tumor tissue was rinsed three times with physiological saline. Subsequently, the tumor mass was segmented into small pieces (diameter ranging from 1.0 to 3.0 mm) using a surgical blade. The tumor tissue (graft) was suspended in serum-free Dulbecco's Modified Eagle Medium and then cryopreserved for implantation. The surgery was carried out by using an anesthesia machine. Mice were anesthetized with 2.5% isoflurane and kept in a lateral position. The skin was sterilely prepared using surgical-grade povidone-iodine, and a small dorsal midline incision (approximately 20.0 mm) was made in the kidney area. […] Tumor size was measured under a microscope and calculated using the formula […], where L is the length and W is the width."}, "[2]": {"system": "JUND", "test": "Western blot of JUND in synovium of PVNS-PDX mice", "settings": "FK866 30 mg/kg i.p. twice daily, four consecutive days weekly, two weeks, compared to the PDX group", "description": "A PVNS-human-derived tissue xenograft (PDX) tumor model was established using female NOD-SCID gnotobiotic mice aged 5 to 6 weeks. The human-derived tissue was sourced from the tumor tissue of patients with a confirmed diagnosis of PVNS who underwent surgery. During the surgery, viable synovial tissue was collected and then transplanted to construct the PVNS-PDX tumor model. The mice were purchased from Vital River Laboratory Animal Technology Co., Ltd. (Beijing, China) and were housed in micro-isolator cages under specific pathogen-free conditions. Tumor grafts were prepared using sterile SmartFlow (Airtech, China). After removing the necrotic tissue, the tumor tissue was rinsed three times with physiological saline. […] Tumor size was measured under a microscope and calculated using the formula […], where L is the length and W is the width.\nSynovial tissue lysates were prepared using RIPA buffer supplemented with PMSF, incubated on ice, and physically sheared for 25 min. The proteins were extracted, and their concentration was measured using the BCA protein assay kit (Beyotime, P0011). […] Band intensity was quantified using ImageJ software version 1.39 V. The primary antibodies used were: anti-NAMPT (1:1000, ABclonal, A0256); anti-ITGA5 (1:1000, ABclonal, A19069); anti-JUND (1:1000, ABclonal, A5496); and anti-β-actin (1:1000, ABclonal, AC006)."}, "[3]": {"system": "JUND", "test": "Immunohistochemistry of JUND in PVNS-PDX mice", "settings": "FK866 30 mg/kg i.p. twice daily, four consecutive days weekly, two weeks, compared to the PDX group", "description": "as §1, with “machine.” for “machine. Mice were anesthetized with 2.5% isoflurane and kept in a lateral position. The skin was sterilely prepared using surgical-grade povidone-iodine, and a small dorsal midline incision (approximately 20.0 mm) was made in the kidney area.”\nThe synovial tissue was fixed in 10% neutral buffered formalin for two days, followed by dehydration with a series of graded ethanol. […] The integrated optical density values of positive staining were evaluated using ImageJ software."}, "[4]": {"system": "PVNS grafts", "test": "Vascular permeability assay (Evans blue) in PVNS grafts", "settings": "PVNS-PDX mice, after 14 days of FK866 30 mg/kg i.p.; mean±S.E.M.; p<0.001 vs. PDX group (14.93±2.003)", "description": "as §1, with “machine.” for “machine. Mice were anesthetized with 2.5% isoflurane and kept in a lateral position. The skin was sterilely prepared using surgical-grade povidone-iodine, and a small dorsal midline incision (approximately 20.0 mm) was made in the kidney area.”\n[…] The concentration of Evans blue in the tissue extract was measured using a microplate reader at a wavelength of 630 nm and a standard curve of Evans blue concentration. […]"}, "[5]": {"system": "fibrinogen (FGB)", "test": "Immunofluorescence staining of FGB and CD31 in PVNS-PDX mice", "settings": "FK866 30 mg/kg i.p., in contrast to the PDX group", "description": "as §1, with “machine.” for “machine. Mice were anesthetized with 2.5% isoflurane and kept in a lateral position. The skin was sterilely prepared using surgical-grade povidone-iodine, and a small dorsal midline incision (approximately 20.0 mm) was made in the kidney area.”\nThe frozen tissue sections were thawed at room temperature for 1 hour. […] The tissue sections were observed using a fluorescence microscope, and the fluorescence intensity was assessed using ImageJ. […]"}},
  "data": [
    {"smiles": "O=C(/C=C/c1cccnc1)NCCCCC1CCN(C(=O)c2ccccc2)CC1", "note": "[FK866]", "values": [
      {"measurement": "Tumor growth", "setting": "[1]", "result": "significantly inhibited"},
      {"measurement": "JUND expression (WB analysis)", "setting": "[2]", "result": "significant decrease"},
      {"measurement": "JUND expression (IHC staining)", "setting": "[3]", "result": "notable reduction"},
      {"measurement": "Evan's blue dye concentration in PVNS grafts (vascular leakage)", "setting": "[4]", "result": "4.040±1.618 ng Evan's blue dye/mg tissue"},
      {"measurement": "FGB deposition around the blood vessels (immunofluorescence)", "setting": "[5]", "result": "significantly reduced"}
    ]}
  ]
}
